The term Ki denotes a dissociation constant, usually derived from enzyme kinetics or from competition with a known ligand. High values mean lower affinity, low ones higher affinity. In general, IC50 refers to the concentration at which inhibition is half-maximal. One may read the inhibition as the relative decrease from the control value, in per cent.

Entries after “also recorded” stand apart in the source; their conditions may differ.

In series [1] the test system is rat primary cortical neurons. Briefly: NMDA survival assay (LDH release), primary cortical neurons. Type of series: cell-based. The conditions noted are these: NMDA 20 μM; for reduction of cell death compared to DA001: compounds in μg/ml, FIG. 13. The protocol:
FIG. 5 DA001 protects against NMDA excitotoxicity in rat cortical neurons. Embryonic rat cortical neurons (11DIV) were treated with NMDA (20 μM) in the absence or presence of TCM samples (μg/ml) or memantine (μM). Memantine is a known NMDA antagonist. LDH release in the medium was measured after overnight incubation and cell cytotoxicity was calculated as a percentage when compared to the solvent control, DMSO.
FIG. 12. Derivatives of DA001 rescue the cortical neurons from NMDA excitotoxicity. Embryonic rat cortical neurons (11DIV) were treated with NMDA (20 μM) in the absence or presence of DA001 or its derivatives (10 or 30 μM); LDH release in the medium after overnight or 24 hours incubation was measured and cell death was calculated as a percentage in comparison to DMSO, the solvent control. Data are expressed as mean±s.e.m. *=P<0.05.
FIG. 13. DA002 and DA021, both derivatives of DA001, reduced NMDA-induced excitotoxicity. Embryonic rat cortical neurons (11DIV) were treated with NMDA (20 μM) in the absence or presence of DA002 or DA021 (μg/ml). LDH release in the medium after overnight incubation was measured and cell cytotoxicity was calculated as a percentage in comparison to DMSO, the solvent control.
DA001 (at 10 μg/ml) reduced cell death by more than 60% compared to the DMSO control. Compound A0178 and memantine were included as negative and positive controls, respectively.
Memantine is an FDA-approved NMDA antagonist used for clinical indications such as dementia in Alzheimer's disease. Dose-dependant assays were performed for each compound and based on the resulting dose response curve, the corresponding EC50 for each compound was determined.
NMDA survival assays were performed to measure the degree of protection provided to cortical neuronal cells when treated with the novel compounds (at 30 μM, except DA026 at 10 μM) prior to NMDA insult.
Compounds derived from DA001 were tested for their ability to inhibit NMDA-induced excitotoxicity. Primary rat cortical neurons were subjected to NMDA insults in the presence and absence of the novel derivatives.
Cortical neurons were pre-treated with DA001 and subsequently subjected to varying concentrations of NMDA. Survival assays were then conducted to determine the ability of DA001 to effectively protect neuronal cells from NMDA-induced excitotoxicity.
LDH release into the medium was then measured.
Primary cortical and hippocampal neurons were prepared from embryonic day 18 (E18) Sprague-Dawley rats. Neurons were plated on 24-well pate (TPP, Corning) at a density of 2×10^5 cells per well using Neurobasal medium (Invitrogen) supplemented with 2% B27 (Invitrogen). […] The cell death was assayed and quantified using the lactate dehydrogenase release assay (Roche) after 24 hours. […]
In general terms: Release of lactate dehydrogenase indicates damage to the cell membrane.

Series [2] deals with rat primary hippocampal neurons. Briefly: NMDA survival assay (LDH release), primary hippocampal neurons. Type of series: cell-based. Conditions: DA001 30 μM, NMDA 20 μM. The protocol:
FIG. 6. DA001 protects against NMDA excitotoxicity in rat primary hippocampal neurons. Embryonic rat hippocampal neurons (11 DIV) were treated with NMDA (20 μM) in the absence or presence of DA001 (μM) or memantine (μM). LDH release in the medium was measured after overnight incubation and cell cytotoxicity was calculated in percentage when compared to solvent control (DMSO).
DA001 (at 30 μM) reduced cell death by ˜80%.
Primary cortical and hippocampal neurons were prepared from embryonic day 18 (E18) Sprague-Dawley rats. Neurons were plated on 24-well pate (TPP, Corning) at a density of 2×10^5 cells per well using Neurobasal medium (Invitrogen) supplemented with 2% B27 (Invitrogen). Neurons at 11-12 days in vitro (12DIV) were subjected to drug treatment. Neurons were pretreated with the test compound for 2 hours prior to NMDA treatment. 0.1 μM(+)-MK-801 Hydrogen Maleate (Sigma) was added as a positive control. Briefly, the neurons were rinsed with Locke's solution (5 mM potassium chloride, 128 mM sodium chloride, 2.7 mM calcium chloride, 1 mM di-sodium hydrogen orthophosphate, 5 mM HEPES and 10 mM glucose in Milli-Q water) without Mg^2+, and incubated with addition of glycine (10 μM) for 15 minutes. […] The cell death was assayed and quantified using the lactate dehydrogenase release assay (Roche) after 24 hours.

Series [3] relates to primary cortical neurons. The series can be described thus: Cell toxicity test (LDH) on primary neurons. Type of series: cell-based. The conditions noted are these: 24 hours, all concentrations, maximum dose 70 μM. The protocol: FIG. 8. […] Primary cortical neurons were treated with different concentrations of DA001 for 24 hours.
This was performed to study the effects of the invention on primary neurons. Cortical neurons isolated from embryonic day 18 Spraque-Dawley rats were cultured in Neurobasal medium supplemented with 2% B27 and penicillin/streptomycin solution (Invitrogen). Primary neurons of 7 days in culture (7 DIV) were treated with various concentrations of the invention in the absence of B27 for 24 hours. Lactate dehydrogenases (LDH) was released into the medium and measured and calculated as percentage compared to 1% Triton X-100.

For series [4], the system named is BDNF expression. Briefly: Real-time quantitative PCR, BDNF expression following NMDA treatment. The series is classed as cell-based, rat. As for the experimental part:
FIG. 20 illustrates that DA001 induces BDNF and NT-3 expression but not Bcl-2 or c-fos following NMDA treatment.
Cortical neurons were pre-treated with DA001 prior to being subjected to NMDA insults, after which total RNA was extracted at different time intervals after treatment. There was a 5-fold increase in BDNF expression after a 6 hour incubation period. BDNF expression remained ˜3-4 fold over the control (DMSO) 12-24 hours after treatment with DA001.
Total RNA was extracted followed by cDNA synthesis. Gene expression was normalized against home gene, hypoxanthine phosphoribosyltransferase 1 (HPRT1) and glyceraldehyde 3-phosphate dehydrogenase (GAPDH). Relative change in gene expression induced by DA001+H2O and DA001+NMDA was compared with the controls, DMSO+H2O and DMSO+NMDA, respectively.
Cortical neurons were pre-treated with DA001 after which the cells were subjected to NMDA insult. The expression of BDNF was measured at three different time intervals and compared to that of NT-3, Bcl-2 and c-fos. DA001 induced BDNF and NT-3 expression but not bcl-2 or c-fos under the same conditions. […]
Cortical neurons of 11DIV-12DIV were pre-incubated with DA001 or DMSO for 24hours. […] Real-time Quantitative PCR was performed using Power SYBR Green PCR Master Mix (Applied Biosystems) on the M×3000P Real-Time PCR System (Stratagene). […]

For series [5], the target named is melanocortin-1 (MC1) receptor (Homo sapiens, UniProt Q01726). Briefly: Radioligand competition binding assay, MC1. The protocol: (§1) DA001 was evaluated against 109 receptor binding assays and 17 enzyme assays, comprising of selective, central and peripheral therapeutically-relevant targets. Radioligand competition assays were conducted whereby DA001 was tested at one concentration (10 μM) in duplicate. […] It could compete with the radioligand [^125I-NDP-alpha-melanocyte-stimulating hormone (α-MSH)] binding for MC1 and MC4 but not MC3 and MC5 nor the related family, the melanin concentrating hormone receptors (MCH1 and MCH2).
(§2) To determine the IC50 for DA001 to inhibit α-MSH binding on MC1 and MC4 receptor, the compound was further characterized by a dose-dependent study. DA001 was evaluated with 8 concentrations on MC1 and MC4 receptor binding assays.
(§3) The specific ligand binding to the receptors is defined as the difference between the total binding and the nonspecific binding determined in the presence of an excess of unlabelled ligand. The results are expressed as a percent of control specific binding [(measured specific binding/control specific binding)×100] and as a percent inhibition of control specific binding {100−[(measured specific binding/control specific binding)×100]} obtained in the presence of DA001. The IC50 values (concentration causing a half-maximal inhibition of control specific binding) and Hill coefficients (nH) were determined by non-linear regression analysis of the competition curves generated with mean replicate values using Hill equation curve fitting (Y=D+[(A−D)/(1+(C/C50)nH)], where Y=specific binding, D=minimum specific binding, A=maximum specific binding, C=compound concentration, C50=IC50, and nH=slope factor). This analysis was performed using a software developed at Cerep (Hill software) and validated by comparison with data generated by the commercial software SigmaPlot® 4.0 for Windows® (© 1997 by SPSS Inc.).
A general note: Loss of bound radioactivity is the signal in a displacement assay; it reports binding, not function.

Series [6] has as its target MC3 (Homo sapiens, UniProt P41968). Briefly: Radioligand competition binding assay, MC3. The conditions noted are these: MC3, DA001 10 μM, duplicate; read-out: % inhibition of control specific binding. The protocol:
as §1

Series [7] deals with melanocortin-4 (MC4) receptor (Homo sapiens, UniProt P32245). Briefly: Radioligand competition binding assay, MC4. As for the experimental part: as §1, §2, §3
Series [8] has as its target MC5 (Homo sapiens, UniProt P33032). The series can be described thus: Radioligand competition binding assay, MC5. Conditions: MC5, DA001 10 μM, duplicate; read-out: % inhibition of control specific binding. The protocol:
as §1

Series [9] addresses melanin concentrating hormone receptor MCH1 (Homo sapiens, UniProt Q99705). Briefly: Radioligand competition binding assay, MCH1. The conditions noted are these: MCH1, DA001 10 μM, duplicate; read-out: % inhibition of control specific binding. As for the experimental part:
as §1

The target of series [10] is melanin concentrating hormone receptor MCH2 (Homo sapiens, UniProt Q969V1). The series can be described thus: Radioligand competition binding assay, MCH2. Conditions: MCH2, DA001 10 μM, duplicate; read-out: % inhibition of control specific binding. The protocol:
as §1

The target in series [11] is melatonin (MT1) receptor (Homo sapiens, UniProt P48039). The series can be described thus: Radioligand competition binding assay, MT1. Conditions: MT1, DA001 10 μM, duplicate; read-out: % inhibition of control specific binding. As for the experimental part:
as §1

melanocortin-4 (MC4) receptor, sequence (P32245 whole entry): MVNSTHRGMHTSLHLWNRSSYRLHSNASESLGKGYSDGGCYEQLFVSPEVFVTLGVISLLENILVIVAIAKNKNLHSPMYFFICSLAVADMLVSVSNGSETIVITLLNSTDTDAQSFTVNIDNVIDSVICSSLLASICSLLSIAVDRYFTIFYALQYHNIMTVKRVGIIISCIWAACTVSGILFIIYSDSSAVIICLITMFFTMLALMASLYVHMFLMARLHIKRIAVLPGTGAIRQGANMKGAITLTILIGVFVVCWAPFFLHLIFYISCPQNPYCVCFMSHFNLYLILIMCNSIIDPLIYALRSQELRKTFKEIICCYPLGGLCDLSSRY
melanocortin-1 (MC1) receptor, sequence (Q01726 whole entry): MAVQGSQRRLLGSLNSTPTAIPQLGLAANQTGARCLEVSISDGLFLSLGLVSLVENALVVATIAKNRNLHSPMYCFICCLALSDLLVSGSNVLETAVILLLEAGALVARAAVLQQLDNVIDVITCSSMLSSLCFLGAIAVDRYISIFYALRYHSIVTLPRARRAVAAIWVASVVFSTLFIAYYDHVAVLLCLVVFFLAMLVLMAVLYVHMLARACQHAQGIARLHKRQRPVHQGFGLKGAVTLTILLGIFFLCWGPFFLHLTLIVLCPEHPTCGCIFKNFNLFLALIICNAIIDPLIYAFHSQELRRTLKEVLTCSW
melanin concentrating hormone receptor MCH1, sequence (Q99705 whole entry): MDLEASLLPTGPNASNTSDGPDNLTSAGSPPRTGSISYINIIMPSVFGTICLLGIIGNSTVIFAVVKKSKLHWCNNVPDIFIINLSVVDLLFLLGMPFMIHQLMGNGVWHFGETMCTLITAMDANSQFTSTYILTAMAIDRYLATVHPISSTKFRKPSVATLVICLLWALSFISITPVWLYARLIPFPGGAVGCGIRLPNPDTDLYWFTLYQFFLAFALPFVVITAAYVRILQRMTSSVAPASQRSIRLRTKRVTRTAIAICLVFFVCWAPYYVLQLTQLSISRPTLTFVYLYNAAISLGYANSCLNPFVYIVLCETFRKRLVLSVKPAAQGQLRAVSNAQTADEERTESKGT
MC3, sequence (P41968 whole entry): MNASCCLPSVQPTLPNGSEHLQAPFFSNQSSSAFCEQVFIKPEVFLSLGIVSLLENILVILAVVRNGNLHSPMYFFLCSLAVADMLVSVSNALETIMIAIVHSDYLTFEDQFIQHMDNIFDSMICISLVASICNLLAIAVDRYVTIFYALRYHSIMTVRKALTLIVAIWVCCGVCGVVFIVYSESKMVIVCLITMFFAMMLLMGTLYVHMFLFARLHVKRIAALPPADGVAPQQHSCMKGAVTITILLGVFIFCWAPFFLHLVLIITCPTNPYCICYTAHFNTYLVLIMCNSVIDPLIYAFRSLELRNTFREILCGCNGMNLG
MC5, sequence (P33032 whole entry): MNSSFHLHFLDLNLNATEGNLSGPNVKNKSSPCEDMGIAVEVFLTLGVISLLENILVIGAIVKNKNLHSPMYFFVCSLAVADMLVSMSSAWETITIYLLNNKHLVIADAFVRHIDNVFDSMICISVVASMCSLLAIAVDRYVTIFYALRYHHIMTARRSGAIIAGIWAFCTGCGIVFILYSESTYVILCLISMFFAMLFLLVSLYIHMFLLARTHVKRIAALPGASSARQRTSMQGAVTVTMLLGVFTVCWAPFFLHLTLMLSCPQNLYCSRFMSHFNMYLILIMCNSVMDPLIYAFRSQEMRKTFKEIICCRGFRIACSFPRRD
melatonin (MT1) receptor, sequence (P48039 whole entry): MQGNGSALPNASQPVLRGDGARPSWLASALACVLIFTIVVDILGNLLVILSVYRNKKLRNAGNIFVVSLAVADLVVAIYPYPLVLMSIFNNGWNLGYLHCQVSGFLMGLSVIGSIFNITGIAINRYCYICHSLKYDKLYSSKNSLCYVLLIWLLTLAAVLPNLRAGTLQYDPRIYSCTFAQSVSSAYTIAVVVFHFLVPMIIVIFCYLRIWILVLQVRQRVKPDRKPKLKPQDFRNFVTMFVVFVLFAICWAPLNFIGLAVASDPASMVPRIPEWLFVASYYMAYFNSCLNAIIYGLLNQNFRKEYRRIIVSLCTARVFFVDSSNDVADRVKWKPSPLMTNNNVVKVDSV
melanin concentrating hormone receptor MCH2, sequence (Q969V1 whole entry): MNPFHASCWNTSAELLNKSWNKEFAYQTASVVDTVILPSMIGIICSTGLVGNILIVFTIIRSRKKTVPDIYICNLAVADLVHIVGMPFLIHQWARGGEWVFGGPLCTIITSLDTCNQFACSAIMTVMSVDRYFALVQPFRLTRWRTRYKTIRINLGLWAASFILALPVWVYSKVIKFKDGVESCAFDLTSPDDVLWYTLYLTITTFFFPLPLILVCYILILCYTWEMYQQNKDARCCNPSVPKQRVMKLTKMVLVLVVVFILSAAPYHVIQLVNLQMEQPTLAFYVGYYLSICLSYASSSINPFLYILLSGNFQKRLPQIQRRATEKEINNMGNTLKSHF

With `C=C(C)[C@@H]1CC[C@]2(C(=O)O)CC[C@]3(C)C(CC[C@@H]4[C@@]5(C)CC[C@H](O)[C@@](C)(CO)[C@@H]5CC[C@]43C)[C@@H]12` (stereo partly shown) [DA002, 3,23-Dihydroxy-20(29)-lupen-28-oic acid], in [1], the “reduction of cell death compared to DA001” value is given as “reduced cell death prominently compared to DA001”.
Consider `C=C(C)C1CCC2(C(N)=O)CCC3(C)C(CCC4C5(C)CCC(O)C(C)(CO)C5CCC43C)C12` (stereo not shown) [DA021, 3,23-Dihydroxy-20(29)-lupen-28-iminol], for which the “reduction of cell death compared to DA001” value in series [1] is given as “reduced cell death prominently compared to DA001”. Besides, the “protection of cortical neurons against NMDA insult (cell death)” value in series [1] (derivatives at 30 μM (DA026 at 10 μM), FIG. 12) is recorded as “showed promising protective effect”.
As for `C=C(C)[C@@H]1CC[C@]2(C(=O)O)CC[C@]3(C)C(CC[C@@H]4[C@@]5(C)CC[C@H](O[C@@H]6OC[C@H](O)[C@H](O)[C@H]6O[C@@H]6O[C@@H](C)[C@H](O)[C@@H](O)[C@H]6O)[C@@](C)(CO)[C@@H]5CC[C@]43C)[C@@H]12` (stereo partly drawn) [DA001, 3-O-[α-L-rhamnopyranosyl-(1→2)-α-L-arabinopyranosyl]-3,23-dihydroxy-20(29)-lupen-28-oic acid], the “reduction of cell death compared to DMSO control” value in series [1] (DA001 10 μg/ml, LDH release) is recorded as “more than 60%”. Further, the “reduction of cell death” value in [2] is about 80%. Moreover, the “cytotoxicity / cell death (LDH release)” value in series [3] is “No obvious cell death was observed at all doses examined; also recorded: did not induce cytotoxicity and cell death at all concentrations examined; also recorded: no significant toxicity was observed”. The “BDNF expression over the control (DMSO)” value in series [4] (12-24 hours after treatment) is on record as 3-4 fold. For the same molecule, the “increase in BDNF expression” value in series [4] (after a 6 hour incubation period, DA001 pre-treatment 24 hrs, NMDA 20 μM) is 5 fold. For the same molecule, the figures for the Ki in series [5] (MC1) and in [7] (MC4) were 5.2 µM and 6.3 µM, respectively. For the same molecule, the IC50 in [5] (MC1, 8 concentrations, α-MSH binding) stood at 10 µM; in series [7] (MC4, 8 concentrations, α-MSH binding), 6.8 µM. Further, the inhibition at 10 µM in series [5] (MC1, DA001 10 μM, duplicate, 125I-NDP-α-MSH, read-out: % inhibition of control specific binding) is 64%; in series [6], 12%; in series [7] (MC4, DA001 10 μM, duplicate, 125I-NDP-α-MSH, read-out: % inhibition of control specific binding) it was 59%; in [8], 11%; in [9], -9%; in series [10], -12%. Further, in series [11], the inhibition at 10 µM stood at 28%.

Values taken from US8637474B2, “Receptor modulators exhibiting neuroprotective and memory enhancing activities” (The Hong Kong University of Science and Technology, priority 2007, dated 2014).
